Test results published in patent US20070074295A1 (priority 2000, published 2007).

Columns and labels:
[1] = system: rats; experiment: Effect of haloperidol and clozapine on PCP induced hypofunction: LCGU; assay type: in vivo, rat; settings: for LCGU, Au layer I / LCGU, Au layers II, III&IV / LCGU, Au layers V & VI / LCGU, AuD layer I / LCGU, AuD layers II, III&IV / LCGU, AuD layers V & VI / LCGU, CA1 molecular layer / LCGU, CA1 pyramidal cell layer / LCGU, CA1 stratum oriens / LCGU, CA1 stratum radiatum / LCGU, CA3 molecular layer / LCGU, CA3 pyramidal cell layer / LCGU, CA3 stratum oriens / LCGU, CA3 stratum radiatum / LCGU, DLL / LCGU, MD / LCGU, PrL layer I / LCGU, PrL layers II & III / LCGU, PrL layers V & VI / LCGU, Rt / LCGU, VLL / LCGU, cochlear nucleus / LCGU, mO layer I / LCGU, mO layers II & III / LCGU, mO layers V & VI: day 29
Source text: The effect of antipsychotics on the positive symptoms is less well studied regarding imaging studies.

[2] = system: CIRL1 mRNA; experiment: Semi-quantitative RT-PCR, prefrontal cortex, chronic PCP and antipsychotic treatment; assay type: in vivo, rat; settings: chronic PCP plus antipsychotic
Experimental: FIG. 14 illustrates the level of CIRL1 mRNA present in the prefrontal cortex of rat brain following chronic PCP and antipsychotic treatment (n=12 for all groups apart from veh-veh where n=11). […] and […] (SEQ ID NOS: 25-26) were the primer sequences used to amplify this product.
(§1) RT-PCR for specific isoforms of CIRL was then conducted in the prefrontal cortex.
(§2) 1 ml of lysis buffer (Qiagen), including 1% β-mercaptoethanol, was added to approximately 50-100 mg of brain tissue. Tissue samples were homogenised using a ribolyser (Hybaid) with 3 bursts at 6.5 g lasting 20 seconds each. Samples were then spun at room temperature in a microfuge for 3 minutes. The supernatant was removed and re-spun for a further 3 minutes. The supernatant was decanted to a fresh tube to which an equal volume of 70% ethanol was added. The remaining RNA isolation procedure was carried out according to the manufacturer's protocol (Qiagen).
(§3) Synthesis of cDNA was carried out according to manufacturers protocols (Life Technologies). Briefly 3-5μg of total RNA was reverse transcribed using oligo dT priming. After cDNA synthesis, samples were aliquoted and stored at −70° C. […]
(§4) Alterations in expression levels were determined by semi-quantitative PCR. […] Samples were removed over 4 consecutive cycles, however, the first cycle to be removed sometimes varied depending on when logarithmic amplification was detected. […]

[3] = system: CIRL2 variant AB mRNA; experiment: as above; assay type: in vivo, rat; settings: chronic PCP plus antipsychotic
Experimental: FIG. 15 illustrates the level of CIRL2 variant AB mRNA present in the prefrontal cortex of rat brain following chronic PCP and antipsychotic treatment (n=12 for all groups apart from veh-veh where n=11). […] and […] (SEQ ID NOS: 27-28) were the primer sequences used to amplify this product.
as §1, §2, §3, §4

[4] = system: CIRL3 variant AA mRNA; experiment: as above; assay type: in vivo, rat; settings: chronic PCP plus antipsychotic
Experimental: FIG. 16 illustrates the level of CIRL3 variant AA mRNA present in the prefrontal cortex of rat brain following chronic PCP and antipsychotic treatment (n=12 for all groups apart from veh-veh where n=11) […] and […] (SEQ ID NOS: 29-30) were the primer sequences used to amplify this product.
as §1, §2, §3, §4

[5] = system: TNFα mRNA; experiment: RT-PCR for TNFα mRNA in rat prefrontal cortex; assay type: in vivo; settings: chronic PCP in combination with haloperidol vs chronic PCP group
Experimental: Four groups of rats were treated with (a) chronic PCP, (b) chronic vehicle (control), (c) chronic PCP plus chronic clozapine (as above) or (d) chronic PCP plus chronic haloperidol (as above). The tissue was processed for RNA extraction and RT-PCP as described above, using primers specific for TNFα mRNA.

[6] = antipsychotic in conjunction with PCP 2.58 mgkg^−1
[7] = clozapine or haloperidol via minipump
[8] = i.p. PCP 2.58 mgkg^−1, minipump vehicle, clozapine 20 or haloperidol 1 mgkg^−1/day
[9] = i.p. vehicle, minipump clozapine 20 or haloperidol 1 mgkg^−1/day

## O=C(CCCN1CCC(O)(c2ccc(Cl)cc2)CC1)c1ccc(F)cc1 [haloperidol]
[1]; [6]
  effect on PCP hypofunction in medial orbital cortex, prelimbic cortex, CA1, reticular nucleus of the thalamus: failed to modulate the hypofunction produced by PCP
  effect on PCP-induced hypofunction in auditory system (AuD, lateral lemniscus, cochlear nucleus): reversed the PCP-induced hypofunction
[1]; [7]
  LCGU in auditory system (AuD, lateral lemniscus, cochlear nucleus), drug alone: did not produce a significant hypofunction
  LCGU in medial orbital cortex, prelimbic cortex, CA1, reticular nucleus of the thalamus, drug alone: produced a metabolic hypofunction
[1]; [8]
  LCGU, Au layer I: 141 ± 8 μmol/100 g/min
  LCGU, Au layers II, III&IV: 174 ± 10 μmol/100 g/min
  LCGU, Au layers V & VI: 117 ± 7 μmol/100 g/min
  LCGU, AuD layer I: 133 ± 7 μmol/100 g/min
  LCGU, AuD layers II, III&IV: 156 ± 10 μmol/100 g/min
  LCGU, AuD layers V & VI: 106 ± 6 μmol/100 g/min
  LCGU, CA1 molecular layer: 97 ± 4 μmol/100 g/min
  LCGU, CA1 pyramidal cell layer: 70 ± 4 μmol/100 g/min
  LCGU, CA1 stratum oriens: 64 ± 4 μmol/100 g/min
  LCGU, CA1 stratum radiatum: 74 ± 4 μmol/100 g/min
  LCGU, CA3 molecular layer: 94 ± 6 μmol/100 g/min
  LCGU, CA3 pyramidal cell layer: 74 ± 5 μmol/100 g/min
  LCGU, CA3 stratum oriens: 69 ± 5 μmol/100 g/min
  LCGU, CA3 stratum radiatum: 76 ± 5 μmol/100 g/min
  LCGU, DLL: 107 ± 2 μmol/100 g/min
  LCGU, MD: 119 ± 6 μmol/100 g/min
  LCGU, PrL layer I: 115 ± 3 μmol/100 g/min
  LCGU, PrL layers II & III: 134 ± 4 μmol/100 g/min
  LCGU, PrL layers V & VI: 97 ± 3 μmol/100 g/min
  LCGU, Rt: 80 ± 1 μmol/100 g/min
  LCGU, VLL: 110 ± 3 μmol/100 g/min
  LCGU, cochlear nucleus: 115 ± 2 μmol/100 g/min
  LCGU, mO layer I: 105 ± 4 μmol/100 g/min
  LCGU, mO layers II & III: 116 ± 4 μmol/100 g/min
  LCGU, mO layers V & VI: 119 ± 4 μmol/100 g/min
[1]; [9]
  LCGU, Au layer I: 142 ± 9 μmol/100 g/min
  LCGU, Au layers II, III&IV: 167 ± 9 μmol/100 g/min
  LCGU, Au layers V & VI: 112 ± 9 μmol/100 g/min
  LCGU, AuD layer I: 139 ± 9 μmol/100 g/min
  LCGU, AuD layers II, III&IV: 153 ± 9 μmol/100 g/min
  LCGU, AuD layers V & VI: 108 ± 7 μmol/100 g/min
  LCGU, CA1 molecular layer: 92 ± 5 μmol/100 g/min
  LCGU, CA1 pyramidal cell layer: 63 ± 4 μmol/100 g/min
  LCGU, CA1 stratum oriens: 59 ± 4 μmol/100 g/min
  LCGU, CA1 stratum radiatum: 66 ± 4 μmol/100 g/min
  LCGU, CA3 molecular layer: 90 ± 4 μmol/100 g/min
  LCGU, CA3 pyramidal cell layer: 71 ± 4 μmol/100 g/min
  LCGU, CA3 stratum oriens: 64 ± 4 μmol/100 g/min
  LCGU, CA3 stratum radiatum: 73 ± 1 μmol/100 g/min
  LCGU, DLL: 92 ± 4 μmol/100 g/min
  LCGU, MD: 117 ± 5 μmol/100 g/min
  LCGU, PrL layer I: 114 ± 4 μmol/100 g/min
  LCGU, PrL layers II & III: 131 ± 4 μmol/100 g/min
  LCGU, PrL layers V & VI: 93 ± 4 μmol/100 g/min
  LCGU, Rt: 86 ± 4 μmol/100 g/min
  LCGU, VLL: 106 ± 5 μmol/100 g/min
  LCGU, cochlear nucleus: 99 ± 9 μmol/100 g/min
  LCGU, mO layer I: 93 ± 4 μmol/100 g/min
  LCGU, mO layers II & III: 106 ± 4 μmol/100 g/min
  LCGU, mO layers V & VI: 102 ± 4 μmol/100 g/min
[2]
  effect on PCP-induced reductions in the level of CIRL1 mRNA: not
[3]
  effect on PCP-induced reductions in CIRL2: reversed
[4]
  effect on PCP-induced reductions in CIRL3: reversed
[5]
  levels of TNFα in rat prefrontal cortex: significantly different from the chronic PCP group

## CN1CCN(C2=Nc3cc(Cl)ccc3Nc3ccccc32)CC1 [clozapine]
[1]; [8]
  LCGU, Au layer I: 140 ± 5 μmol/100 g/min
  LCGU, Au layers II, III&IV: 166 ± 6 μmol/100 g/min
  LCGU, Au layers V & VI: 118 ± 4 μmol/100 g/min
  LCGU, AuD layer I: 135 ± 5 μmol/100 g/min
  LCGU, AuD layers II, III&IV: 152 ± 6 μmol/100 g/min
  LCGU, AuD layers V & VI: 107 ± 4 μmol/100 g/min
  LCGU, CA1 molecular layer: 87 ± 2 μmol/100 g/min
  LCGU, CA1 pyramidal cell layer: 62 ± 2 μmol/100 g/min
  LCGU, CA1 stratum oriens: 57 ± 2 μmol/100 g/min
  LCGU, CA1 stratum radiatum: 66 ± 3 μmol/100 g/min
  LCGU, CA3 molecular layer: 84 ± 2 μmol/100 g/min
  LCGU, CA3 pyramidal cell layer: 69 ± 3 μmol/100 g/min
  LCGU, CA3 stratum oriens: 62 ± 1 μmol/100 g/min
  LCGU, CA3 stratum radiatum: 69 ± 2 μmol/100 g/min
  LCGU, DLL: 108 ± 5 μmol/100 g/min
  LCGU, MD: 113 ± 3 μmol/100 g/min
  LCGU, PrL layer I: 118 ± 6 μmol/100 g/min
  LCGU, PrL layers II & III: 134 ± 7 μmol/100 g/min
  LCGU, PrL layers V & VI: 104 ± 5 μmol/100 g/min
  LCGU, Rt: 81 ± 2 μmol/100 g/min
  LCGU, VLL: 118 ± 5 μmol/100 g/min
  LCGU, cochlear nucleus: 119 ± 8 μmol/100 g/min
  LCGU, mO layer I: 104 ± 5 μmol/100 g/min
  LCGU, mO layers II & III: 112 ± 6 μmol/100 g/min
  LCGU, mO layers V & VI: 115 ± 5 μmol/100 g/min
[1]; [9]
  LCGU, Au layer I: 136 ± 6 μmol/100 g/min
  LCGU, Au layers II, III&IV: 169 ± 6 μmol/100 g/min
  LCGU, Au layers V & VI: 126 ± 4 μmol/100 g/min
  LCGU, AuD layer I: 136 ± 4 μmol/100 g/min
  LCGU, AuD layers II, III&IV: 154 ± 5 μmol/100 g/min
  LCGU, AuD layers V & VI: 115 ± 6 μmol/100 g/min
  LCGU, CA1 molecular layer: 102 ± 5 μmol/100 g/min
  LCGU, CA1 pyramidal cell layer: 78 ± 4 μmol/100 g/min
  LCGU, CA1 stratum oriens: 72 ± 4 μmol/100 g/min
  LCGU, CA1 stratum radiatum: 80 ± 4 μmol/100 g/min
  LCGU, CA3 molecular layer: 96 ± 4 μmol/100 g/min
  LCGU, CA3 pyramidal cell layer: 81 ± 4 μmol/100 g/min
  LCGU, CA3 stratum oriens: 74 ± 4 μmol/100 g/min
  LCGU, CA3 stratum radiatum: 83 ± 5 μmol/100 g/min
  LCGU, DLL: 99 ± 5 μmol/100 g/min
  LCGU, MD: 124 ± 6 μmol/100 g/min
  LCGU, PrL layer I: 119 ± 4 μmol/100 g/min
  LCGU, PrL layers II & III: 139 ± 5 μmol/100 g/min
  LCGU, PrL layers V & VI: 98 ± 4 μmol/100 g/min
  LCGU, Rt: 95 ± 4 μmol/100 g/min
  LCGU, VLL: 109 ± 5 μmol/100 g/min
  LCGU, cochlear nucleus: 108 ± 7 μmol/100 g/min
  LCGU, mO layer I: 93 ± 4 μmol/100 g/min
  LCGU, mO layers II & III: 109 ± 4 μmol/100 g/min
  LCGU, mO layers V & VI: 106 ± 5 μmol/100 g/min
